Laboratory results as given in publication PMC8596765 (Clinical Pharmacology in Drug Development, 2021).
“Also recorded” adds a separate entry of the source. Where two headings read alike, the source gives them in different places.

Assays:
[1] = format: in vivo, human (healthy subjects)
[2] = format: in vivo, human (healthy subjects); settings: for CL/F: N = 12, mean ± SD
[3] = format: in vivo, human (healthy subjects); settings: for CL/F / Cmax: N = 24, mean ± SD
OATP1B = test: In vivo transporter inhibition by upadacitinib inferred from statin exposures; parameters: species or system human (healthy subjects); settings: upadacitinib 30 mg once daily; no increase in rosuvastatin or atorvastatin exposures
BCRP [4] = biological target: T1, BCRP (Homo sapiens, UniProt Q9UNQ0); test: as above; parameters: species or system human (healthy subjects); settings: upadacitinib 30 mg once daily; no increase in rosuvastatin or atorvastatin exposures
T1 sequence (Q9UNQ0 1-655): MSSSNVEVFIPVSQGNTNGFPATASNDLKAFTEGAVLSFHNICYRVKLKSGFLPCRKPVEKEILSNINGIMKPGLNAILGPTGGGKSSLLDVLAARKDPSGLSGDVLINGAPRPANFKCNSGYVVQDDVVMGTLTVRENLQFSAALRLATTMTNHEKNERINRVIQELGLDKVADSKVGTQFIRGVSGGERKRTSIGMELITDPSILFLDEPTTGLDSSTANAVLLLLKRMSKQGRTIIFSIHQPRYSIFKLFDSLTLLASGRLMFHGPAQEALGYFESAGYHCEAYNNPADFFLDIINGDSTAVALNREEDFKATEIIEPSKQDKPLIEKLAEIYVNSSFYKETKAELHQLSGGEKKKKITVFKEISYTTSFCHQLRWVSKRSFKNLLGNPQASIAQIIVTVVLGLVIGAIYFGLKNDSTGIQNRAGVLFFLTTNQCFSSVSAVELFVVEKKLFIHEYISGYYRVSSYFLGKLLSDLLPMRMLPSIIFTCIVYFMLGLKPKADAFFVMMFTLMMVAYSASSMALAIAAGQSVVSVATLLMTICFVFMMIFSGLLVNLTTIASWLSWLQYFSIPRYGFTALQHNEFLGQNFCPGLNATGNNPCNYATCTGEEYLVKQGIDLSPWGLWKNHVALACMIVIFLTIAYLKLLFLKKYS

Safety monitoring = format: in vivo, human (healthy subjects); settings: for Tolerability: doses administered alone or in combination, healthy subjects
CYP1A2 = settings: following upadacitinib dosing in the cocktail drug interaction study; cited from earlier work
CYP2C9 = settings: following upadacitinib dosing in the cocktail drug interaction study; cited from earlier work
CYP2C19 = settings: following upadacitinib dosing in the cocktail drug interaction study; cited from earlier work
CYP2D6 = settings: following upadacitinib dosing in the cocktail drug interaction study; cited from earlier work
P‐glycoprotein = settings: in vitro assessments; cited from earlier work
[5] = test system: breast cancer resistance protein (BCRP); settings: in vitro assessments; cited from earlier work
BCRP [6] = settings: in vitro assessments, at clinically relevant concentrations; cited from earlier work
[7] = test system: organic anion transporting polypeptide (OATP) 1B1; settings: in vitro assessments, at clinically relevant concentrations; cited from earlier work
[8] = cited from earlier work
[9] = cited from earlier work; remark: listed apart in the source
[10] = oral contraceptives, CYP3A substrates; cited from earlier work
CYP3A = settings: upadacitinib 30 mg once daily, healthy subjects; cited from earlier work
HMG‐CoA reductase = settings: cited from earlier work
[11] = upadacitinib 30 mg once daily at steady state
[12] = part 2, period 2 day 6, upadacitinib 30 mg once daily alone
[13] = part 2, period 2 day 7, upadacitinib 30 mg once daily + atorvastatin 10 mg single dose
[14] = rosuvastatin 5 mg, upadacitinib 30 mg once daily
[15] = atorvastatin 10 mg + upadacitinib 30 mg once daily, period 2 day 7, N = 24
[16] = atorvastatin 10 mg alone, period 1 day 1, N = 24
[17] = atorvastatin 10 mg alone, period 1 day 1, N = 24, mean ± SD

CC[C@@H]1CN(C(=O)NCC(F)(F)F)C[C@@H]1c1cnc2cnc3[nH]ccc3n12 [upadacitinib]
Effect of upadacitinib on the pharmacokinetics of rosuvastatin ([1]; upadacitinib 30 mg once daily, rosuvastatin 5 mg): no clinically relevant effect
AUC ([2]; human, plasma, oral, 30 mg): 585 ± 153 ng·h/mL
Cmax ([2]; human, plasma, oral, 30 mg): 73 ± 23.6 ng/mL
concentration at 24 h ([2]; human, plasma, oral, 30 mg): 5.17 ± 1.56 ng/mL
CL/F ([2]; part 1, period 2 day 6, upadacitinib 30 mg once daily alone): 54.6 ± 14.4 L/h
CL/F ([2]; part 1, period 2 day 7, upadacitinib 30 mg once daily + rosuvastatin 5 mg single dose): 55.9 ± 14.7 L/h
Effect of single 5‐mg dose of rosuvastatin on upadacitinib Cmax or AUC [2, 11]: no relevant effect
AUC ([3]; human, plasma, oral, 30 mg): 547 ± 112 ng·h/mL
concentration at 24 h ([3]; human, plasma, oral, 30 mg): 4.3 ± 1.74 ng/mL
CL/F [3, 12]: 57.2 ± 12.3 L/h
Cmax [3, 12]: 76.5 ± 16.1 ng/mL
CL/F [3, 13]: 58.4 ± 11.7 L/h
Cmax [3, 13]: 73.2 ± 17.1 ng/mL
Effect of single 10‐mg dose of atorvastatin on upadacitinib Cmax or AUC [3, 11]: no relevant effect
Inhibition of OATP1B in vivo (OATP1B): lack of inhibition
Inhibition of BCRP in vivo (BCRP [4]): lack of inhibition
Tolerability (Safety monitoring): generally well tolerated
Patients reporting constipation (grade 1) (Safety monitoring; during treatment with rosuvastatin and upadacitinib, N = 12): 1 patient
New safety findings (Safety monitoring; upadacitinib alone or with the statins): no new safety findings
Effect of upadacitinib on the pharmacokinetics of atorvastatin (upadacitinib 30 mg once daily, atorvastatin 10 mg): no clinically relevant effect
Effect on CYP1A2 activity (CYP1A2): No relevant effects
Effect on CYP2C9 activity (CYP2C9): No relevant effects
Effect on CYP2C19 activity (CYP2C19): No relevant effects
Effect on CYP2D6 activity (CYP2D6): No relevant effects
Substrate for P‐glycoprotein (P‐glycoprotein): is a substrate
Substrate for BCRP [5]: is a substrate
Inhibition of BCRP (BCRP [6]): not expected to inhibit
Inhibition of OATP1B1 [7]: not expected to inhibit
Time to steady state ([8]; once‐daily dosing of the extended‐release formulation): ≤ 4 days
Accumulation in plasma ([8]; repeated once‐daily dosing of the extended‐release formulation): no significant accumulation

CC(C)c1nc(N(C)S(C)(=O)=O)nc(-c2ccc(F)cc2)c1/C=C/[C@@H](O)C[C@@H](O)CC(=O)O [rosuvastatin]
AUC(0-inf) ([1]; human, plasma, oral, 5 mg): 22.8 ± 6.69 ng·h/mL
AUC(0-t) ([1]; human, plasma, oral, 5 mg): 17.5 ± 6.53 ng·h/mL
half-life ([1]; human, plasma, oral, 5 mg, t1/2 (arithmetic mean ± standard deviation), rosuvastatin 5 mg alone, period 1 day 1, N = 12): 27.5 h
Cmax ([1]; human, plasma, po, 5 mg): 1.91 ± 0.699 ng/mL
Cmax central value ratio (90%CI) ([1]; rosuvastatin 5 mg with upadacitinib 30 mg once daily versus rosuvastatin alone): 0.77
AUCinf lower when administered with upadacitinib relative to alone [1, 14]: 33%
Cmax lower when administered with upadacitinib relative to alone [1, 14]: 23%
Tolerability (Safety monitoring): generally well tolerated
Intrasubject variability in plasma exposures [9]: ≈ 25%

CC(C)c1c(C(=O)Nc2ccccc2O)c(-c2ccccc2)c(-c2ccc(F)cc2)n1CC[C@@H](O)C[C@@H](O)CC(=O)O [ortho‐hydroxyatorvastatin]
t1/2 (arithmetic mean ± standard deviation) [15]: 10.7 ± 2.76 h
t1/2 (harmonic mean ± pseudo-standard deviation) [15]: 10.0 ± 2.60 h
t1/2 (arithmetic mean ± standard deviation) [16]: 12.9 ± 5.76 h
t1/2 (harmonic mean ± pseudo-standard deviation) [16]: 11.1 ± 3.92 h
Ortho‐hydroxyatorvastatin to atorvastatin AUCinf ratio [17]: 1.39 ± 0.499
Ortho‐hydroxyatorvastatin to atorvastatin AUCt ratio [17]: 1.33 ± 0.492
tmax (atorvastatin 10 mg alone, period 1 day 1, N = 24, median (minimum-maximum)): 4.0 (2.0‐8.0) h
Cmax (atorvastatin 10 mg single dose + upadacitinib 30 mg once daily, period 2 day 7, N = 24, mean ± SD): 1.54 ± 0.610 ng/mL
Cmax (atorvastatin 10 mg single oral dose alone, period 1 day 1, N = 24, mean ± SD): 1.58 ± 0.716 ng/mL

C#C[C@]1(O)CC[C@H]2[C@@H]3CCC4=CC(=O)CC[C@@H]4[C@H]3CC[C@@]21CC [levonorgestrel]
Effect of upadacitinib on plasma exposures [10]: lack of effect; also recorded: no effect

Cc1ncc2n1-c1ccc(Cl)cc1C(c1ccccc1F)=NC2 [midazolam]
Decrease in AUC when administered with upadacitinib relative to alone (CYP3A): 26%
Decrease in Cmax when administered with upadacitinib relative to alone (CYP3A): 26%

C#C[C@]1(O)CC[C@H]2[C@@H]3CCc4cc(O)ccc4[C@H]3CC[C@@]21C [ethinylestradiol]
Effect of upadacitinib on plasma exposures [10]: lack of effect; also recorded: no effect

CC(C)c1c(C(=O)Nc2ccccc2)c(-c2ccccc2)c(-c2ccc(F)cc2)n1CC[C@@H](O)C[C@@H](O)CC(=O)O [atorvastatin]
Tolerability (Safety monitoring): generally well tolerated

CC(C)c1nc(NS(C)(=O)=O)nc(-c2ccc(F)cc2)c1/C=C/[C@@H](O)C[C@@H](O)CC(=O)O [N‐desmethyl rosuvastatin]
Inhibitory activity of HMG‐CoA reductase compared to rosuvastatin (HMG‐CoA reductase): minimal inhibitory activity
